The source of these data is PMC4980028, “Discovery of a Series of Acridinones as Mechanism-Based Tubulin Assembly Inhibitors with Anticancer Activity” (PLoS ONE, 2016).

Each structure is given as a SMILES string. Read-outs that look alike come from different tables or passages of the source. Where only a bound is given, the exact number is not on record here.

For data set [1], the system named is MDA-MB-231 cells. The experiment in a line: Boyden chamber (transwell) migration assay. Conditions: MDA-MB-231, transwell, 6 h, read-out: IC50 Cell migration. The data set is classed as cell-based, human. Here is the method: Transwells containing 0.3 cm^2 inserts with 8.0 μm pore polyethylene terephthalate membranes (Corning Falcon^TM) were used to quantify cell migration. MDA-MB-231 cells were added at a density of 4 x 10^4 cells/insert in serum-free media (300 μL) in the upper chambers. In the lower chambers, 700 μL of medium supplemented with 10% FBS was added. […] The systems were incubated at 37°C for 6 h. Next, the cells inside the insert were removed with a cotton swab and the cells under the membrane were fixed with methanol and stained with toluidine blue for 5 min. Pictures of the stained membrane were taken under a 10X objective (Optiphase), and the cells were quantified using NIS Elements software (NIKON). Two independent experiments were conducted in duplicate.

The subject of a further data set is DU-145. In words: Cytotoxicity assay (MTS). Conditions: 72 h MTS assay. The data set is classed as cell-based, human. Here is the method: (§1) MDA-MB-231, DU-145 and FGH cell lines were plated at a concentration of 4 x 10^3 cells/well in 96-well culture plates (TPP^TM). After 24 h, 10 concentrations (100–0.16 μM) of the test compounds were added in triplicate to the wells, and the plates were incubated for 72 h at 37°C in a 5% CO2 humidified atmosphere (if necessary). Then, 20 μL of the MTS reagent (CellTiter 96® AQueous One Solution Cell Proliferation Assay, Promega) was added to the wells, and the cells were incubated for 3 to 4 h at 37°C. Next, absorbance was measured at 490 nm using a spectrophotometer (SpectraMax Plus384, Molecular Devices). The percentage of unviable cells was determined in relation to the control wells, and at least two independent experiments were carried out for each test compound.
(In general: Tetrazolium dyes change colour on reduction, which living cells bring about.)

The next data set concerns MDA-MB-231. In words: Cytotoxicity assay (MTS). The data set is classed as cell-based, human. Conditions: for IC50: 72 h MTS assay; for dead cells in MTS studies: similar concentrations as apoptosis analyses. Here is the method: as §1
The next data set deals with FGH. In words: Cytotoxicity assay (MTS). The data set is classed as cell-based, human. Conditions: for IC50: 72 h MTS assay, normal fibroblasts; for cell death in FGH cells: concentrations around the IC50 values in MDA-MB-231 cells. Here is the method: (§2) Then, 20 μL of the MTS reagent (CellTiter 96® AQueous One Solution Cell Proliferation Assay, Promega) was added to the wells, and the cells were incubated for 3 to 4 h at 37°C. Next, absorbance was measured at 490 nm using a spectrophotometer (SpectraMax Plus384, Molecular Devices). The percentage of unviable cells was determined in relation to the control wells, and at least two independent experiments were carried out for each test compound.

Data set [2] addresses T1, tubulin (Sus scrofa, UniProt P02550+P02554). In words: Light-scattering-based tubulin polymerization assay. Conditions: read-out: IC50 Tubulin assembly. It is filed as biochemical. Here is the method: To independently confirm the ability of the compounds to inhibit tubulin assembly, a second tubulin polymerization assay was carried out. We added 20 μL aliquots of the test compounds solubilized in 10% DMSO (in triplicate) to the wells of a 96-well culture plate (TPP^TM). Then, 180 μL of 3 mg/mL tubulin (>97% pure, HTS03, Cytoskeleton) in G-PEM buffer (80 mM PIPES, 1 mM EGTA, 2 mM GTP, 1 mM MgCl2 and glycerol 5%, pH 7,0) was added to the wells, and the absorbance at 340 nm was measured every 40 s for 1 h using a SpectraMax Plus384.

Data set [3] has as its system MDA-MB-231 cells. In words: Cell-cycle analysis by flow cytometry. It is filed as cell-based, human. The following applies: 48 h, 1 or 3 μM, synchronized culture. Here is the method: MDA-MB-231 cells were added at a density of 5 x 10^5 cells in 25 cm^2 culture bottles (TPP^TM) with 5 mL of medium supplemented with 10% FBS. After 36 h, the media was removed, and 5 mL of fresh media without FBS was added. The bottles were then incubated for 48 h for cell-cycle synchronization. Then, the cells were treated with the test compounds (1 or 3 μM) for 48 h. Subsequently, the cells were harvested by trypsinization, and their chromatin was fixed and stained following the manufacturer’s instructions (cat. no. 340242, BD Biosciences^TM). Shortly thereafter, the cells were centrifuged at 300 rcf for 5 min and resuspended in 1 mL of buffer (sodium citrate, sucrose, and DMSO) three times. From this suspension, 1 x 10^6 cells were centrifuged at 400 rcf for 5 min, resuspended in 250 μL of solution A (trypsin in a spermine tetrahydrochloride detergent buffer) and incubated for 10 min at room temperature. Next, 200 μL of solution B (trypsin inhibitor and ribonuclease A in citrate-stabilizing buffer with spermine tetrahydrochloride) was added, and the suspension was incubated for 10 min at room temperature. Finally, 200 μL of solution C (propidium iodide (PI) and spermine tetrahydrochloride in citrate stabilizing buffer) was added, and the sample was incubated for 15 min in the refrigerator. The samples were then analyzed by flow cytometry using a BD Accuri C5 (BD Biosciences^TM) system (excitation at 488 nm and emission detected with a 585/40 nm filter).

For data set [4], the system named is MDA-MB-231 cells. In words: Apoptosis analysis (FITC-Annexin V/PI flow cytometry). It is filed as cell-based, human. Conditions: for dead cells: 72 h after treatment; for apoptotic cells: after 24 h. Here is the method:
Apoptosis was measured by flow cytometry via double staining with FITC-Annexin V and PI (cat. no. 556570, BD Pharmigen^TM). Cells were prepared in the same way as described for the cell-cycle analysis, except that the cell-synchronization step was omitted in this case. After treatment with the test compounds for 24 or 72 h, the cells were harvested by trypsinization and centrifuged for 10 min at 150 rcf. The pellet was resuspended in annexin V binding buffer at a concentration of 10^6 cells/mL. Then, 100 μL of this suspension was collected and stained with 5 μL of PI and FITC-Annexin V for 15 min at room temperature in the dark. After this, 400 μL of annexin V binding buffer was added, and the samples were analyzed using a BD Accuri C5 cytometer with excitation at 488 nm and emission detected with 533/30 nm (FITC) and 670 LP nm (PI) filters.

For data set [5], the system named is MDA-MB-231 cells. The experiment in a line: Wound healing assay. It is filed as cell-based, human. Conditions: 10 μM, 22 h. Here is the method: To qualitatively evaluate directional cell migration, MDA-MB-231 cells were seeded at a density of 1 x 10^5 cells/well in 24-well culture plates (TPP^TM) and allowed to reach a confluent monolayer. Then, the wells were scratched using a sterile 100 μL pipette tip. The medium was removed and fresh medium without FBS was added to clean the debris. Next, the cells were incubated for 22 h at 37°C with supplemented medium (10% FBS) and different concentrations of test compounds (10 μM, 1 μM and 0.250 μM). When measuring the wound closure, the wells were photographed under a 4X objective (Optiphase) at 0 and 22 h. The images were analyzed using Image J software, and two independent experiments were conducted in triplicate.

A further data set in a line: Cytotoxicity assay (MTS). It is filed as cell-based, human. The following applies: human, FGH cells (normal fibroblasts); 72 h MTS assay, normal fibroblasts. Here is the method:
as §2

Data set [6] addresses T1, tubulin. The experiment in a line: Fluorescence-based tubulin polymerization assay. It is filed as biochemical. The following applies: read-out: IC50 Tubulin assembly. Here is the method:
Tubulin polymerization assay kit B[…] (Cytoskeleton) was used according to the manufacturer's instructions. […] The curves were normalized, and the percentage of inhibition was calculated by comparing the polymerization reaction at 25 min relative to vehicle control.

T1 sequence (P02550 whole entry): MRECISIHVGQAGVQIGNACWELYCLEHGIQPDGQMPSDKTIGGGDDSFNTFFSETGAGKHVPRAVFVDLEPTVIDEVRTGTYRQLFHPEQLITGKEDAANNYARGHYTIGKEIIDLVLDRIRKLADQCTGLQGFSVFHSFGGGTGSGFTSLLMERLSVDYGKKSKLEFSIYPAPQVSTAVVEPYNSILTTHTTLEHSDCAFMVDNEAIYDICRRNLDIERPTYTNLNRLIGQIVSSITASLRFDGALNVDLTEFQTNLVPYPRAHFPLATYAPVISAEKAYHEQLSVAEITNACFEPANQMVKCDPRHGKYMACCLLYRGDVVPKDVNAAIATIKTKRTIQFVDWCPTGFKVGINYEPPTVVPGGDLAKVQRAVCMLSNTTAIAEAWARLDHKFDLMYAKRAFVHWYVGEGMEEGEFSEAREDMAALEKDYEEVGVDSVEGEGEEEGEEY
T1 sequence (P02554 whole entry): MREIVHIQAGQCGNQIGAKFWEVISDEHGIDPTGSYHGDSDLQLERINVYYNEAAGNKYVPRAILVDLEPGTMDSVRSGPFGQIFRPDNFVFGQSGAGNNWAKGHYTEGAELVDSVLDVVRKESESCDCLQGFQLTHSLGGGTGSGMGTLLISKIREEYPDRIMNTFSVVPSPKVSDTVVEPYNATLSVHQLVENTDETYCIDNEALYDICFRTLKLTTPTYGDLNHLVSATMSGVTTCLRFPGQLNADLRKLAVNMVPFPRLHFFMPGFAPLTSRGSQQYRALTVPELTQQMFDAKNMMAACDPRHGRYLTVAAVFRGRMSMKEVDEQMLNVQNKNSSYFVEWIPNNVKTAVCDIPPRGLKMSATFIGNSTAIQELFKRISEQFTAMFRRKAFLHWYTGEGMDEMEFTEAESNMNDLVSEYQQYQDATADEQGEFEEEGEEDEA

Take `O=C1CCCC2=C1C(c1cccs1)c1ccc3ccccc3c1N2` (racemic) [Compound 9]: the IC50 in the data set with MDA-MB-231 cells [1] is 1345 ± 7 nM; in the data set with DU-145 it was 1000 ± 300 nM; in the data set with MDA-MB-231, 1100 ± 200 nM; with FGH it was greater than 100000 nM; on tubulin [2], 5000 ± 2000 nM. For the same compound, the “dead cells in MTS studies” value with MDA-MB-231 was 71%. Besides, in the data set on FGH, the “cell death in FGH cells” value was 13%. For the same compound, the “cells arrested in G2” value in the data set on MDA-MB-231 cells [3] is on record as 53.6%. Besides, in the data set on MDA-MB-231 cells [4], the dead cells is on record as 75%. In the data set on MDA-MB-231 cells [4], this compound returned an apoptotic cells of 54.6%. Besides, in the data set with MDA-MB-231 cells [5], the “inhibition of wound closure (cell migration)” value (shortened to “inhibition of wound closure”) is “inhibit cell migration”.
For `COc1cc2c(c(OC)c1OC)-c1ccc(OC)c(=O)cc1[C@@H](NC(C)=O)CC2` [Colchicine, colchicine, reference compound], the IC50 was 25 ± 3 nM in the data set on DU-145 and 20 ± 10 nM in the data set on MDA-MB-231. In addition, the IC50 at 72 h in “Cytotoxicity assay (MTS)” was less than 20 nM. Moreover, the “cells arrested in G2” value in the data set on MDA-MB-231 cells [3] is 42.9%. The same compound gave a dead cells with MDA-MB-231 cells [4] of 72%. Besides, the apoptotic cells with MDA-MB-231 cells [4] is listed as 65%.
As for `O=C1CCCC2=C1C(c1ccc3c(c1)OCO3)c1ccc3ccccc3c1N2` (stereo not drawn) [Compound 6], the IC50 is 13000 ± 2000 nM on tubulin [6]; 1700 ± 700 nM with MDA-MB-231 cells [1]; 3200 ± 700 nM in the data set on DU-145; 3000 ± 1000 nM in the data set with MDA-MB-231; greater than 100000 nM in the data set with FGH. The “dead cells in MTS studies” value with MDA-MB-231 is 51%. In addition, the “cell death in FGH cells” value in the data set with FGH stood at 3%. In addition, the “cells arrested in G2” value with MDA-MB-231 cells [3] is recorded as 53.6%. The same compound showed a dead cells in the data set on MDA-MB-231 cells [4] of 55%. The compound further returned an apoptotic cells with MDA-MB-231 cells [4] of 69.4%. The “inhibition of wound closure” value with MDA-MB-231 cells [5] was “inhibit cell migration”.
Consider `O=C1CCCC2=C1[C@@H](c1cccc([N+](=O)[O-])c1)c1ccc3ccccc3c1N2` [Compound 7], for which the IC50 in the data set with MDA-MB-231 cells [1] (Homo sapiens) came out at 294 ± 5 nM. Further, in the data set with DU-145 (Homo sapiens, DU-145), the IC50 came to 308 ± 50 nM. For the same compound, the IC50 in the data set with MDA-MB-231 (Homo sapiens, MDA-MB-231) is 190 ± 7 nM. Besides, the “dead cells in MTS studies” value with MDA-MB-231 is on record as 69%. Besides, in the data set “Cytotoxicity assay (MTS)”, the IC50 at 72 h is greater than 100000 nM. Moreover, in the data set with FGH, the “SI (selectivity index)” value is greater than 100 and the “cell death in FGH cells” value amounted to 20%. The “cells arrested in G2” value with MDA-MB-231 cells [3] was 49.1%. Besides, in the data set with MDA-MB-231 cells [4], the dead cells stood at 67% and the apoptotic cells was determined as 54.2%. For the same compound, the “inhibition of wound closure” value in the data set on MDA-MB-231 cells [5] is “inhibit cell migration”.
